# “Also recorded” adds a separate entry of the source.
# Assays:
# [1] = Plasma protein binding, rat plasma; assay type: in vitro ADME; conditions: Sprague Dawley, pH 7.4, read-out: % PPB, R (converted)
# Protocol: (§1) Plasma protein binding (PPB) for compounds determination for compound (±)-44 in PBS (pH 7.4) was conducted by Eurofins using equilibrium dialysis of plasma with HPLC-UV/Vis detection.
# (§2) The peak areas of the test compound in the buffer and test samples were used to calculate percent binding and recovery according to the following formulas:
# (§3) • Areap=Peak area of analyte in protein matrix • Areab=Peak area of analyte in buffer • Areac=Peak area of analyte in control sample
# hERG = hERG (Homo sapiens (Human), UniProt Q12809); assay: CiPA hERG QPatch Assay; assay type: cell-based; conditions: five-point concentration-response, n = 2
# [2] = Metabolic stability and clearance in cynomolgus monkey liver microsomes; assay type: in vitro ADME; conditions: 30 minute incubation
# Protocol: The results of metabolic stability determinations for novel compounds and testosterone (positive control) were conducted in the presence of human, rat, mouse, and monkey liver microsomes. Values shown are percent of parent remaining after a 30 minute incubation. All measurements were done in duplicate. Assay results for testosterone were within an acceptable range.
# Mixed-gender human liver microsomes (Lot #1710084), male Sprague-Dawley rat liver microsomes (Lot #1610290), male CD-1 mouse liver microsomes (Lot #1710069), and male Cynomolgous liver microsomes (Lot #1510193) were purchased from XenoTech. The reaction mixture, minus NADPH, was prepared as described below. The test article was added into the reaction mixture at a final concentration of 1 μM. The control compound, testosterone, was run simultaneously with the test article in a separate reaction. An aliquot of the reaction mixture (without cofactor) was equilibrated in a shaking water bath at 37° C. for 3 minutes. The reaction was initiated by the addition of cofactor, and the mixture was incubated in a shaking water bath at 37° C. Aliquots (100 μL) were withdrawn at 0, 10, 20, 30, and 60. […] Half-lives were calculated using GraphPad software, fitting to a single-phase exponential decay equation.
# [3] = Plasma protein binding, human plasma; assay type: in vitro ADME; conditions: pH 7.4, read-out: % PPB, H (converted)
# Protocol: as §1, §2, §3
# Abca4−/−/Rdh8−/− mice = assay: Photoreceptor preservation (ONL thickness) in Abca4−/−/Rdh8−/− mice; assay type: in vivo, mouse; conditions: 25 mg/kg daily in chow, 10 weeks
# Protocol: FIG. 11. Photoreceptor protection in (±)-44-treated Rdh8^−/−Abca4^−/− mice. […] Data analyzed by two-way ANOVA with Sidak post hoc test.
# (±)-44 was formulated into a Picolab 5053 chow to ensure a daily dosing of 25 mg/kg of (±)-44. Long-term 10-week dosing of the compound formulated into a chow was conducted in Abca4^−/−/Rdh8-mice. The age-matched control group of wild-type C57BL/6J mice was kept on a standard Picolab 5053 chow. After 10 weeks of dosing, whole eyes were collected and fixed in the 2% glutaraldehyde/4% paraformaldehyde. Eyes were embedded in paraffin and sectioned at a thickness of 8 μm. Sections were counterstained using hematoxylin and eosin (H&E). Morphologic observations and light microscopy was performed.
# serum RBP4 = serum RBP4 (Mus musculus (Mouse), UniProt Q00724); assay: Serum RBP4 after long-term oral dosing in Abca4−/−/Rdh8−/− mice; assay type: in vivo; conditions: 25 mg/kg daily in chow
# Protocol: FIG. 9. Effect of the long-term oral (±)-44 administration in Abca4^−/−/Rdh8^−/− mice on serum RBP4 levels. Serum RBP4 levels were measured in vehicle-treated Abca4^−/−/Rdh8^−/− mice (squares) and (±)-44-treated Abca4^−/−/Rdh8^−/− mice (triangles) at the indicated time points. […] Error bars show S.D. Each data point on the graph represents a serum RBP4 concentration from an individual animal.
# Blood samples were collected from a tail vein. Whole blood was drawn into a centrifuge tube and was allowed to clot at room temperature for 30 minutes followed by centrifugation at 2000 g for 15 minutes at […] to collect serum. Aliquots of plasma samples collected in the mouse pharmacokinetic study were analyzed for the RBP4 concentration using the RBP4 (mouse/rat) dual ELISA kit (AdipoGen, San Diego, CA) following the manufacturer's instructions. In adi-hRBP4 transgenic mouse experiments, blood samples were collected from a tail vein. […] Mouse serum RBP4 (produced predominantly in the liver) was measured using the RBP4 (mouse/rat) dual ELISA kit (AdipoGen, San Diego, CA; catalog number AG-45A-0012YTP-KI01)
# (±)-44 was formulated into a Picolab 5053 chow to ensure a daily dosing of 25 mg/kg of (±)-44. […] Following the 10 weeks of dosing, the eyecups of treated and untreated Abca4^−/−/Rdh8^−/− mice as well as the eyecups of the reference wild type mice were collected for the quantitative A2E analysis.
# hERG, sequence (Q12809 whole entry): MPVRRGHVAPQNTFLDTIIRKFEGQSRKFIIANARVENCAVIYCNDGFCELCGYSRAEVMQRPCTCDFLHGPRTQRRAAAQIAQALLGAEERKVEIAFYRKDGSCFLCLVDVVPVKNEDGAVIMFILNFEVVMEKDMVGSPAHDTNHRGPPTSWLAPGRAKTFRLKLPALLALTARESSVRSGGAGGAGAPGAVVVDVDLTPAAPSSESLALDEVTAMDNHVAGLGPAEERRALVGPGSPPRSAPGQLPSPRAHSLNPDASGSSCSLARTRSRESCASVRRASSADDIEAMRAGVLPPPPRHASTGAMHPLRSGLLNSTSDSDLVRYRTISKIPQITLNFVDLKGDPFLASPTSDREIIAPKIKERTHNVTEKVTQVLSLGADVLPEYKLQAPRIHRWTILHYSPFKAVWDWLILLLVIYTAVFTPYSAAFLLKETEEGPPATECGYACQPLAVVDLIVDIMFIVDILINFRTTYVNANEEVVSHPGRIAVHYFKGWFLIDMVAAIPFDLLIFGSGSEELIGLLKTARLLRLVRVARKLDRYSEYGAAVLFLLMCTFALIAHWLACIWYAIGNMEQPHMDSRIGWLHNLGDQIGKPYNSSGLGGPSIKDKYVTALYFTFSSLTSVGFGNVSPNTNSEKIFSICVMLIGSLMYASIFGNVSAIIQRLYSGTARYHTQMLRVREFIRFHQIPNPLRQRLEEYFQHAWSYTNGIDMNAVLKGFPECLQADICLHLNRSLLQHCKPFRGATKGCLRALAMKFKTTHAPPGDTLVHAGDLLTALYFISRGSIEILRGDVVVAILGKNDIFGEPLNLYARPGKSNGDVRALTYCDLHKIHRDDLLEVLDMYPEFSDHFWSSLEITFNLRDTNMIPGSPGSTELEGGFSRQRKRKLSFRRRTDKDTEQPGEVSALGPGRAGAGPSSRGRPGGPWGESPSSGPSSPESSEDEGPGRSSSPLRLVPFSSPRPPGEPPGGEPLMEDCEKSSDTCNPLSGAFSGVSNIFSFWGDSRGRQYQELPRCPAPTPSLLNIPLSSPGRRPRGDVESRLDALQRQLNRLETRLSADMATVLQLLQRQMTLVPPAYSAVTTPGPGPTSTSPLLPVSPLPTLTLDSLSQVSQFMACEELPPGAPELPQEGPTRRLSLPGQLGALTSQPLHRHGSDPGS
smiles,measurement,setting,value
"Cc1cc(C(=O)O)nc(N2CCC(COc3ccccc3C(F)(F)F)C2)n1 (racemic) [Compound (±)-44, (±)-6-Methyl-2-(3-((2-(trifluoromethyl)phenoxy)methyl)pyrrolidin-1-yl)pyrimidine-4-carboxylic Acid]",fraction unbound,[1],0.04
same,IC50,hERG,> 30 µM
same,"Liver Microsomal Stability (% remaining at 30 min), cyno LM",[2],103%
same,fraction unbound,[3],0.002
same,photoreceptor protection (ONL thickness),Abca4−/−/Rdh8−/− mice,partially reversed; also recorded: Photoreceptor protection is evident at multiple points in the superior retina
same,serum RBP4 reduction compared to untreated Abca4−/−/Rdh8−/− mice,serum RBP4; 10 weeks,84%
same,serum RBP4 reduction compared with baseline,"serum RBP4; week 10, Abca4−/−/Rdh8−/− mice",76%
